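Here, GI50 denotes the concentration required for 50% inhibition of growth. The concentration for full growth arrest is given as TGI.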
Legend:
Assay in all cases: NCI tumour cell line growth inhibition, 384-well format; in the data active = GI50 below about 0.43 µM; inactive = the rest
[1] = system: NCI-H322M lung
[2] = system: RPMI-8226 leukemia
[3] = system: SW-620 colon
[4] = system: MCF7 breast
[5] = system: HL-60(TB) leukemia
[6] = system: OVCAR-3 ovarian
[7] = system: UACC-62 melanoma
[8] = system: NCI/ADR-RES ovarian
[9] = system: OVCAR-5 ovarian
[10] = system: SK-MEL-28 melanoma
[11] = system: HOP-62 NSCLC
[12] = system: SN12C renal
[13] = system: SNB-19 CNS
[14] = system: MALME-3M melanoma
[15] = system: BT-549 breast
[16] = system: SF-268 CNS
[17] = system: UO-31 renal
[18] = system: RXF 393 renal
[19] = system: MDA-MB-231 breast
[20] = system: LOX IMVI melanoma
[21] = system: SNB-75 CNS
[22] = system: A498 renal
[23] = system: OVCAR-4 ovarian
[24] = system: K-562 leukemia
[25] = system: M14 melanoma
[26] = system: HCT-116 colon
[27] = system: IGROV1 ovarian
[28] = system: MDA-MB-435 melanoma

CCn1c(CO)nn(-c2cc(O[C@@H](C)C(F)(F)F)c(C(=O)Nc3c(F)cccc3Cl)cc2F)c1=O
28.8 µM: TGI [17]
12.3 µM: TGI [18]
20.4 µM: TGI [3]
62.7 µM: TGI [25]
70.2 µM: TGI [7]
active: GI50 [2] < 0.01 µM | GI50 [3] < 0.01 µM | GI50 [4] < 0.01 µM | GI50 [5] < 0.01 µM | GI50 [7] < 0.01 µM | GI50 [8] < 0.01 µM | GI50 [9] < 0.01 µM | GI50 [10] < 0.01 µM | GI50 [12] < 0.01 µM | GI50 [14] < 0.01 µM | GI50 [15] < 0.01 µM | GI50 [16] < 0.01 µM | GI50 [17] < 0.01 µM | GI50 [18] < 0.01 µM | GI50 [19] < 0.01 µM | GI50 [20] < 0.01 µM | GI50 [24] < 0.01 µM | GI50 [25] < 0.01 µM | GI50 [26] < 0.01 µM | GI50 [28] < 0.01 µM
inactive: GI50 [1] 9.92 µM | GI50 [6] 20.8 µM | GI50 [11] 6.85 µM | GI50 [13] 17.5 µM | GI50 [21] 13.4 µM | GI50 [22] 13.5 µM | GI50 [23] 54.9 µM | GI50 [27] 2.22 µM
79.2 µM: TGI [21]
19.9 µM: TGI [10]
> 100 µM: TGI [1] | TGI [6] | TGI [9] | TGI [11] | TGI [12] | TGI [13] | TGI [14] | TGI [15] | TGI [19] | TGI [22] | TGI [23] | TGI [24] | TGI [26] | TGI [27] | TGI [28]
88 µM: TGI [8]
91.3 µM: TGI [4]
< 0.01 µM: TGI [2] | TGI [5] | TGI [16] | TGI [20]
